± gives the expanded uncertainty stated by the source.
Tests used:
[1] = Crystal; for Normal melting temperature: DTA
[2] = Molar enthalpy of transition or fusion; details: Crystal; DSC
[3] = molar heat capacity at constant pressure; details: 298.15 K; 101.33 kPa; Crystal; Small sample (50 mg) DSC

Normal melting temperature [1] | Molar enthalpy of transition or fusion [2] | molar heat capacity at constant pressure [3] | mass density ([1]; 298.15 K, 101.33 kPa, measuring the mass and volume of a pellet of the compound) | SMILES
90 ± 0.4 °C | 16.3 ± 0.58 kJ/mol | 113.8 ± 3.5 J/K/mol |  | O=C1NCCO1 [2-oxazolidone]
69.8 ± 0.6 °C | 15.3 ± 0.52 kJ/mol | 164.7 ± 3.5 J/K/mol | 1230 ± 60 kg/m3 | CC(=O)N1CCOC1=O [3-acetyl-2-oxazolidinone]

Source: the NIST ThermoML archive (doi:10.1016/j.jct.2016.07.038)
